# According to patent publication US20130022590A1, “Compositions Comprising Zinc Finger Domains and Uses Therefor” (priority 2009, published 2013):
# Experiments:
# [1] = system: ssRNA oligonucleotide containing a single AGGUAA site (GCAACCAGGUAAAGUCU, SEQ ID NO: 28); test: Fluorescence anisotropy titration, single-site ssRNA; type: binding; conditions: GST fusions; ssRNA with 5′ fluorescein tag and a single AGGUAA site; 25° C.
# Experimental: (§1) Fluorescence Anisotropy titrations e.g., as shown in FIGS. 1D-F, 8 and 35, were carried out using standard protocols. In brief, 5′-Fluorescein-labeled RNA oligonucleotides were quantified by A260, correcting for fluorescein absorbance by using A493. For single-site experiments, the sequence GCAACCAGGUAAAGUCU (SEQ ID NO: 28), or single base mutants thereof, was used. For double-site experiments, two AGGUAA sites were separated by different length sequences as indicated, and the total oligonucleotide lengths were kept constant by the symmetrical addition of adenines to each end. […] Protein was titrated into this starting solution and anisotropy values measured on a Cary Eclipse fluorescence spectrophotometer fitted with manual polarizer and long-pass filters set to 475 and 515 nm for excitation and emission, respectively. […] Association constants were determined by nonlinear least squares regression analysis using a 1:1 binding model.
# Constructs of the two individual domains, F1 (FIG. 2, residues 1-45) and F2 (FIG. 2, residues 65-95), were cloned expressed and purified as GST fusions described in section 1.2 above, and tested their ability to bind ssRNA by fluorescence anisotropy as described in section 1.5 above, using a ssRNA oligonucleotide bearing a 5′ fluorescein tag and containing a single AGGUAA site.
# AGAUAA ssRNA = test: Fluorescence anisotropy binding assay, AGAUAA substrate; conditions: FIG. 19 and FIG. 20
# Experimental: as §1
# To determine whether changing arginine-82 (R82) would affect the binding preference of ZRANB2-F2 from GGU to GAU, the point mutation R82Q in ZNF 2 of ZRANB2 was made and the ability of both the wild type (W) protein and the R82Q mutant to bind to AGGUAA and AGAUAA was assessed by fluorescence anisotropy binding assays as described previously in Example 1.
# [2] = system: short (6 or 10 nt) RNA oligonucleotides containing a single AGGUAA motif; test: NMR chemical-shift perturbation (15N-HSQC) RNA titration; type: binding; conditions: 15N-labeled F2
# Experimental: In brief, F2 and F12 were dialysed into 25 mM potassium phosphate (pH 7.0), 25 mM NaCl, and 0.5 mM DTT and concentrated to 0.4-1 mM. All spectra were recorded on a Bruker Avance 600 spectrometer equipped with a cryoprobe. 1H, 15N, and 13C assignments were obtained from HNCACB, CB-CA(CO)NH, HCCH-TOCSY, NOESY, and TOCSY spectra acquired at 2° C., 5° C., or 25° C. Dihedral angle restraints were obtained by analysis of an HNHA spectrum as previously described in Vuister G. W. and Bax A. 1993 J Am Chem Soc 115: 7772-7777. NMR data were processed by using XWINNMR/Topspin (Bruker) and analyzed with SPARKY (T. D. Goddard and D. G. Kneller, University of California, San Francisco). The structure of F2 was calculated from NOE and Ø angle constraints (e.g., FIGS. 5 and 9C) by using a protocol as described in Plambeck C. A., et al., 2003 J Biol Chem 278: 22805-22811.
# For RNA titrations, deprotected RNA oligonucleotides i.e., having the sequence AGGUAA, CCAGGUAAAG (SEQ ID NO: 25), or AGGUAAAGGUAA (SEQ ID NO: 26) and the appropriate protein were dialyzed into 10 mM Mops (pH 7.2) and 0.5 mM DTT. Protein and RNA concentrations were calculated from A280 and A260, respectively. Final concentrations of complexes after titrations were typically approximately 0.1-0.5 mM. Assignments of the F2:RNA complex (1:1 or 1:1.2 molar ratio) were made at 25° C. as described above. […]
binding affinity to guanine base relative to adenine base at position 3 (AGGUAA vs AGAUAA) (AGAUAA ssRNA),Substance,association constant [1] [M⁻¹],complex formed on RNA titration [2]
about 4 fold,"F2: F2 zinc finger domain (residues 65-95 of human ZRANB2), wild type (SANDWQCKTCSNVNWARRSECNMCNTPKYAK; F2 zinc finger domain GST fusion in some uses; UniProt O95218 65-95, looked up, fragment)",1e+06,well-defined 1:1 complex
,"F1: F1 zinc finger domain (residues 1-45 of human ZRANB2) (MSTKNFRVSDGDWICPDKKCGNVNFARRTSCNRCGREKTTEAKMM; F1 zinc finger domain GST fusion in some uses; UniProt O95218 1-45, looked up, fragment)",3e+06,
